# Test results from patent US20260008783A1, “MODULATORS OF FSHR AND USES THEREOF” (Celmatix Inc., priority 2022, published 2026).
# pIC50: −log10 of the molar value.
# Molecular target: T1, Follicle Stimulating Hormone Receptor (FSHR) (Homo sapiens, UniProt P23945)
# T1 construct: HA (N); expressed in transfected cells; host or cells: CHO-K1, transient transfection, pHM6 vector (CMV promoter)
# T1 sequence (P23945 18-695): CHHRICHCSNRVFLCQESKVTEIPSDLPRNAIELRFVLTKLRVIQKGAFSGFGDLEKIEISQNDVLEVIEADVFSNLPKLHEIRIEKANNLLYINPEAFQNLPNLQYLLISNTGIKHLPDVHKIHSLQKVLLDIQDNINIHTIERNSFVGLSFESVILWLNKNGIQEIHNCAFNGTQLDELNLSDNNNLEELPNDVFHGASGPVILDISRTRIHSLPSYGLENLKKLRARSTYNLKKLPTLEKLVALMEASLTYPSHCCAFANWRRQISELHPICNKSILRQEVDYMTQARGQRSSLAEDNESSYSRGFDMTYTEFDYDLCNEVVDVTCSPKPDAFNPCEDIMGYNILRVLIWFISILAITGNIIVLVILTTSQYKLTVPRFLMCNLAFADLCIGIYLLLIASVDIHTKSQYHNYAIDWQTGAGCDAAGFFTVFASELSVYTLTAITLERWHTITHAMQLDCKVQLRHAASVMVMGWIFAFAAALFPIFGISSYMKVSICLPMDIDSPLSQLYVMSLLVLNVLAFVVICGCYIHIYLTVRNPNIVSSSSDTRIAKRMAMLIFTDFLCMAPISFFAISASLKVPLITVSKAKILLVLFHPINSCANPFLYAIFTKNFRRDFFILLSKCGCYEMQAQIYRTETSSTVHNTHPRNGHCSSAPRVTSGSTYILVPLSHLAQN
# Assay: HTRF cAMP agonist assay, FSHR, transiently transfected CHO-K1 cells
# Assay type: cell-based
# Conditions: CHO-K1 cells transiently expressing human FSHR, read-out: IC50 FSHR LANCE CAMP
# Description: Example 17. HTRF cAMP Agonist Assay Protocol (for FSHR, TSHR, LHCGR)
# Mammalian expression vectors designed to express either Follicle Stimulating Hormone Receptor (FSHR), Thyroid Stimulating Hormone Receptor (TSHR), or Luteinizing Hormone/Choriogonadotropin Receptor (LHCGR), were generated with an HA-tag on the N-terminus. All constructs were expressed under a human cytomegalovirus (CMV) immediate early enhancer and promoter using the pHM6 expression vector. The protein coding region was confirmed by sequence analysis to be in-frame and of the expected sequence, matching the following accession numbers: FSHR NM_000145, TSHR NM_000369, and LHCGR NM_000233.
# HTRF cAMP assays were performed using Chinese Hamster Ovary (CHO-K1) cell lines transiently expressing human FSH, TSH, and LHCG receptors. 48 hours before the assay, cells were washed with PBS and then dissociated from tissue culture flasks with 0.25% trypsin. Dissociated cells were quenched in full media (F-12K Medium Corning REF #10-025-CV, 10% Avantor Seradigm FB Essence Cat #10803-034, 1% Penicillin/Streptomycin Cytiva HyClone Cat #SV30010) and then collected by centrifugation at 290×g for 5 min. Cells were resuspended in full media and dispensed into 150 mm cell culture dishes (Nest Scientific Cat #715001), at 2.3×10^6 cells/flask. 7 hours later, cells were transfected using Lipofectamine transfection reagent (Invitrogen Cat #18324020). Briefly, 60 μL of lipofectamine was dispensed into 2 mL of Opti-MEM (Gibco Cat #31985070) and incubated for 5 minutes at room temperature. Then, the mixture was added onto […] of DNA and incubated for another 20 minutes at room temperature. Cells were washed with warm (37° C.) PBS. 17.5 mL of Opti-MEM was dispensed onto the cells, followed by addition of the Opti-MEM/lipofectamine/DNA mixture. Cells were incubated overnight in a 37° C., 5% CO2 cell incubator. 17-19 hours later, Opti-MEM was aspirated off the cells and replaced with full media. Cells were incubated for another 24 hours in a 37° C., 5% CO2 cell incubator.
# On the day of the assay, cells were washed with PBS and then dissociated from tissue culture flasks with 0.25% trypsin. Dissociated cells were quenched in full media and then collected by centrifugation at 290×g for 5 min. Cells were resuspended in PBS^+/+ (Corning REF #20-030-CV) to a concentration of 2×10^5 cells/mL. 10 μL/well of cells (2,000 cells/well) were dispensed into 384-well Corning plates (REF #3825), in triplicate. Cells were incubated at room temperature for 2 hours.
# Example FSHR Modulator compounds were diluted in assay buffer (PBS^+/+, 0.05% BSA Sigma-Aldrich A3059, 500 μM IBMX Sigma-Aldrich 15879) to 3.5× the final assay concentration. 4 μL of test agonist was added to the cells and incubated for 1 hour at room temperature. 10 μL of cAMP detection reagents (LANCE Ultra cAMP Detection Kit PerkinElmer TRF0264) were dispensed onto the cells and plates were incubated for 2 hours at room temperature (cAMP detection reagents were made according to the PerkinElmer kit protocol). Plates were read on an Envision plate reader following PerkinElmer guidelines.
# Raw data for all assays was transmitted directly from plate readers into a database for processing. All assay plates contained both positive and negative control wells to allow for data normalization and scaling. In agonist assays, negative control wells contained assay buffer and positive control wells contained […] positive control (10 nM Follicle Stimulating Hormone Sigma-Aldrich F4021, 50 nM Thyroid Stimulating Hormone Sigma-Aldrich 869006, 50 nM Luteinizing Hormone MyBioSource MBS5308806, for their respective receptors). All control wells contained DMSO at a final assay concentration that matched the test compound wells. […]
# Percent control data were analyzed by non-linear regression with a sigmoidal dose response algorithm in the database to yield potency and efficacy data.
row,SMILES,pIC50
1,"COc1cc2c(cc1-c1cncc(C(N)=O)c1)-c1c(c(C(=O)N(C)C(C)(C)C)nn1-c1ccsc1)C2 [Compound 5-04, N-tert-butyl-7-(5-carbamoyl-3-pyridyl)-6-methoxy-N-methyl-1-(3-thienyl)-4H-indeno[1,2-c]pyrazole-3-carboxamide]",8.09
2,"COc1cc2c(cc1-c1ccn(C)n1)-c1c(c(C(=O)N3CCOCC3(C)C)nn1-c1cc(Cl)cc(Cl)c1)C2 [Compound 5-05, [1-(3,5-dichlorophenyl)-6-methoxy-7-(1-methylpyrazol-3-yl)-4H-indeno[1,2-c]pyrazol-3-yl]-(3,3-dimethylmorpholin-4-yl)methanone]",6.25
3,"COc1cc2c(cc1-c1ccn(C)n1)-c1c(c(C(=O)N(C)C(C)(C)C)nn1-c1cc(Cl)cc(Cl)c1)C2 [Compound 5-06, N-tert-butyl-1-(3,5-dichlorophenyl)-6-methoxy-N-methyl-7-(1-methylpyrazol-3-yl)-4H-indeno[1,2-c]pyrazole-3-carboxamide]",6.31
4,"COc1cc2c(cc1-c1ccn(C)n1)-c1c(c(C(=O)N3CCOCC3(C)C)nn1-c1ccsc1)C2 [Compound 5-07, (3,3-dimethylmorpholin-4-yl)-[6-methoxy-7-(1-methylpyrazol-3-yl)-1-(3-thienyl)-4H-indeno[1,2-c]pyrazol-3-yl]methanone]",6.94
5,"COc1cc2c(cc1-c1ccn(C)n1)-c1c(c(C(=O)N(C)C(C)(C)C)nn1-c1ccsc1)C2 [Compound 5-08, N-tert-butyl-6-methoxy-N-methyl-7-(1-methylpyrazol-3-yl)-1-(3-thienyl)-4H-indeno[1,2-c]pyrazole-3-carboxamide]",6.71
6,"COc1cc2c(cc1Br)-c1c(c(C(=O)N3CCOCC3(C)C)nn1-c1cc(Cl)cc(Cl)c1)CC2 [Compound 6-01A, [8-bromo-1-(3,5-dichlorophenyl)-7-methoxy-4,5-dihydrobenzo[g]indazol-3-yl]-(3,3-dimethylmorpholin-4-yl)methanone]",5.96
7,"COc1cc2c(cc1-c1cncc(C#N)c1)-c1c(c(C(=O)N3CCOCC3(C)C)nn1-c1cc(Cl)cc(Cl)c1)CC2 [Compound 6-01B, 5-[1-(3,5-dichlorophenyl)-3-(3,3-dimethylmorpholine-4-carbonyl)-7-methoxy-4,5-dihydrobenzo[g]indazol-8-yl]pyridine-3-carbonitrile]",7.48
8,"COc1cc2c(cc1-c1cncc(C(N)=O)c1)-c1c(c(C(=O)N(C)C(C)(C)C)nn1-c1cc(Cl)cc(Cl)c1)CC2 [Compound 6-02, N-tert-butyl-8-(5-carbamoyl-3-pyridyl)-1-(3,5-dichlorophenyl)-7-methoxy-N-methyl-4,5-dihydrobenzo[g]indazole-3-carboxamide]",8.07
9,"COc1cc2c(cc1Br)-c1c(c(C(=O)N(C)C(C)(C)C)nn1-c1cc(Cl)cc(Cl)c1)CC2 [Compound 6-02A, 8-bromo-N-tert-butyl-1-(3,5-dichlorophenyl)-7-methoxy-N-methyl-4,5-dihydrobenzo[g]indazole-3-carboxamide]",6.06
10,"COc1cc2c(cc1-c1cncc(C#N)c1)-c1c(c(C(=O)N(C)C(C)(C)C)nn1-c1cc(Cl)cc(Cl)c1)CC2 [Compound 6-02B, N-tert-butyl-8-(5-cyano-3-pyridyl)-1-(3,5-dichlorophenyl)-7-methoxy-N-methyl-4,5-dihydrobenzo[g]indazole-3-carboxamide]",7.50
11,"COc1cc2c(cc1-c1ccn(C)n1)-c1c(c(C(=O)N3CCOCC3(C)C)nn1-c1cc(Cl)cc(Cl)c1)CC2 [Compound 6-03, [1-(3,5-dichlorophenyl)-7-methoxy-8-(1-methylpyrazol-3-yl)-4,5-dihydrobenzo[g]indazol-3-yl]-(3,3-dimethylmorpholin-4-yl)methanone]",6.79
12,"COc1cc2c(cc1-c1ccn(C)n1)-c1c(c(C(=O)N(C)C(C)(C)C)nn1-c1cc(Cl)cc(Cl)c1)CC2 [Compound 6-04, N-tert-butyl-1-(3,5-dichlorophenyl)-7-methoxy-N-methyl-8-(1-methylpyrazol-3-yl)-4,5-dihydrobenzo[g]indazole-3-carboxamide]",6.75
13,"COc1cc2ccc3c(C(=O)N4CCOCC4(C)C)nn(-c4cc(Cl)cc(Cl)c4)c3c2cc1-c1cncc(C(N)=O)c1 [Compound 6-05, 5-[1-(3,5-dichlorophenyl)-3-(3,3-dimethylmorpholine-4-carbonyl)-7-methoxy-benzo[g]indazol-8-yl]pyridine-3-carboxamide]",8.28
14,"COc1cc2ccc3c(C(=O)N(C)C(C)(C)C)nn(-c4cc(Cl)cc(Cl)c4)c3c2cc1-c1cncc(C(N)=O)c1 [Compound 6-06, N-tert-butyl-8-(5-carbamoyl-3-pyridyl)-1-(3,5-dichlorophenyl)-7-methoxy-N-methyl-benzo[g]indazole-3-carboxamide]",7.87
15,"COc1cc2ccc3c(C(=O)N4CCOCC4(C)C)nn(-c4cc(Cl)cc(Cl)c4)c3c2cc1-c1ccn(C)n1 [Compound 6-07, [1-(3,5-dichlorophenyl)-7-methoxy-8-(1-methylpyrazol-3-yl)benzo[g]indazol-3-yl]-(3,3-dimethylmorpholin-4-yl)methanone]",7.08
16,"COc1cc2ccc3c(C(=O)N(C)C(C)(C)C)nn(-c4cc(Cl)cc(Cl)c4)c3c2cc1-c1ccn(C)n1 [Compound 6-08, N-tert-butyl-1-(3,5-dichlorophenyl)-7-methoxy-N-methyl-8-(1-methylpyrazol-3-yl)benzo[g]indazole-3-carboxamide]",7.11
17,"COc1cc2c(cc1-c1cncc(C(N)=O)c1)-c1c(c(C(=O)N3CCNCC3C)nn1-c1cc(Cl)cc(Cl)c1)CC2 (stereo not shown) [Compound 8-01, 5-[1-(3,5-dichlorophenyl)-7-methoxy-3-(2-methylpiperazine-1-carbonyl)-4,5-dihydrobenzo[g]indazol-8-yl]pyridine-3-carboxamide]",7.68
18,COc1cc2c(cc1-c1cncc(C(N)=O)c1)-c1c(c(C(=O)N3CCNCC3(C)C)nn1-c1cc(Cl)cc(Cl)c1)CC2 [Compound 8-02],7.52
19,"COc1cc2c(cc1-c1cncc(C(N)=O)c1)-c1c(c(C(=O)N3CCCNCC3)nn1-c1cc(Cl)cc(Cl)c1)CC2 [Compound 8-03, 5-[3-(1,4-diazepane-1-carbonyl)-1-(3,5-dichlorophenyl)-7-methoxy-4,5-dihydrobenzo[g]indazol-8-yl]pyridine-3-carboxamide]",6.35
